Source: US11618746B2, “Inhibitors of APOL1 and methods of using same” (Vertex Pharmaceuticals Incorporated, priority 2018, dated 2023)
pIC50: −log10 of the molar value.

Target: T1, APOL1 G1 Protein (Homo sapiens, UniProt O14791, I384M/S342G)
T1 sequence (O14791 28-398 S342G/I384M): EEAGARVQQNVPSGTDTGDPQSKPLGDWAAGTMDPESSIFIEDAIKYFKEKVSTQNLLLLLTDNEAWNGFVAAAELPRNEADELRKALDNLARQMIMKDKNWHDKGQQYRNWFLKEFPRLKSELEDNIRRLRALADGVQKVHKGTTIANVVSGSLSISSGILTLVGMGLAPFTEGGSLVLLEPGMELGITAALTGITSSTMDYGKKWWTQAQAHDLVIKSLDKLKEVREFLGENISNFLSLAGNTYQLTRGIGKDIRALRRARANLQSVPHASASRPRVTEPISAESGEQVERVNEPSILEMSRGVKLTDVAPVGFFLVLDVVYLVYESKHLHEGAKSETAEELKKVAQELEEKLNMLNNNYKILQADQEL
Assay: Trypanosoma brucei brucei lysis assay using APOL1 recombinant protein (AlamarBlue viability readout)
Type: cell-based
Conditions: Trypanosoma brucei brucei (Lister 427 VSG 221 bloodstream form) lysis by 0.05 μg/mL recombinant APOL1 G1, 16 hrs
Text: Trypanosoma brucei brucei is a blood stream parasite to which human, gorillas and baboon are immune due to the presence of the APOL1 protein in their HDL particles. The protein is uptaken by the parasite via the TbHpHb receptor located in its flagellar pocket and is bonded by the Hpr protein contained in the HDL particles which triggers the receptor endocytosis by the parasite.
Following endocytosis, the formed vesicle containing the HDL particle matures from early to late endosome, and subsequently to lysosome. The concomitant pH change in the lumen of the vesicle triggers the insertion of the APOL1 protein into the membrane of the late endosome/lysosome and hereby triggers lysosomal membrane premeabilisation and as a further downstream event, trypanosome lysis. Trypanosoma brucei brucei is sensitive to lysis by all three APOL1 variants (G0, G1, and G2).
The Trypanosoma brucei brucei lysis assay is a lysis assay of the parasite using recombinant APOL1 protein variant followed by a fluorescent detection method of viability by the addition of AlamarBlue reagent to the assay well, a general metabolic redox indicator (AlamarBlue assay).
Briefly, the AlamarBlue active compound, the resazurin, a blue, water soluble, non-toxic and cell permeable molecule, which can be followed by absorbance, is reduced by various metabolic pathways into resorufin, a red compound which can be followed by either absorbance or fluorescence. The assay allows the calculation of the percent viability (percent of living Trypanosomes remaining in each well) at the end of a lysis relative to the untreated condition by interpolation of fluorescent values (FLU) on a standard curve with a known amount of seeded trypanosome/well.
Trypanosoma brucei brucei (ATCC, Cat. No. PRA-382) • Lister 427 VSG 221 bloodstream form.
Thaw/Expansion Media (ATCC Medium 2834 Modified HMI-9 Medium)
Equipment • E1-Clip Tip pipette 12 channel adjustable 2-125 μL, Cat. No. 4672070BT • ThermoFisher MultiDrop 384, Cat. No. 5840300 • Multidrop • Agilent Bravo, Cat. No. G5409A • Bravo • SpectraMax M5
Trypanosoma brucei brucei Culture
Step 2, Day 4 • Centrifuge at 800×g for 5 minutes at room temperature. • Resuspend in 1 mL media. • Make a 1:25 fold dilution (10 μL/240 μL media). • Count on a hemocytometer (after adding parasites). • Let sit for 1-2 minutes for the parasites to settle. • Count should be approximately 100 viable motile parasites/16 grid or approximately 25×10^6 parasites/flask. • Passage the parasites by adding 1×10^6 parasites/T75 flask in 20 mL media. • Passage the parasites by adding 2.33×10^6 parasites/T175 flask in 46.6 mL media. • For every T75 flask should make enough for approximately 1.5×384 well assay plates. • For every T175 flask should make enough for approximately 3.8×384 well assay plates.
Step 3. Day 6 • Centrifuge at 800×g for 5 minutes. • Resuspend in 3 mL assay media (No phenol red, no FBS) per 75 starting flask. • Resuspend in 7 mL assay media (No phenol red, no FBS) per 175 flask • Make a 1:25 fold dilution. • Count by hemocytometer. • Every T75 flask set up should have approximately 75×10^6 parasites/flask (verify doubling time=8.7 hrs 1 hr). • Every T175 flask set up should have approximately 175×10^6 parasites/flask (verify doubling time=8.7 hrs±1 hr). • Require 46×10^6 parasites per 384 well plate (at 120,000 parasites per well).
Step 2, Day 2 • Centrifuge at 800×g for 5 minutes at room temperature. • Resuspend in 1 mL media. • Make a 1:25 fold dilution (10 L/240 μL media). • Let sit for 1-2 minutes for the parasites to settle. • Count should be approximately 100 viable motile parasites/16 grid or approximately 8×10^6 parasites per flask. • Passage the parasites by adding 1.25×10^6 parasites per T75 flask in 20 mL media. • For every T75 flask set up should have approximately 1.5×384 well assay plates. • For every T175 flask setup should have approximately 3.8×384 well assay plates. […]

SMILES	pIC50
O=C1NC[C@@H](O)[C@@H]1NC(=O)C(F)(F)Cc1c(-c2ccc(F)cc2)[nH]c2c(F)cc(F)cc12 [Compound 95, 3-[5,7-difluoro-2-(4-fluorophenyl)-1H-indol-3-yl]-2,2-difluoro-N-[(3S,4R)-4-hydroxy-2-oxo-pyrrolidin-3-yl]propanamide]	> 6.60
Cc1c(F)c(F)cc2c(CCC(=O)N[C@@H]3C(=O)NC[C@H]3O)c(-c3ccc(F)cc3)[nH]c12 [Compound 98, 3-[5,6-difluoro-2-(4-fluorophenyl)-7-methyl-1H-indol-3-yl]-N-[(3S,4R)-4-hydroxy-2-oxo-pyrrolidin-3-yl]propanamide]	> 6.60
Cc1c(F)c(F)cc2c(CCC(=O)N[C@@H]3C(=O)NC[C@H]3O)c(-c3ccccc3)[nH]c12 [Compound 99, 3-(5,6-difluoro-7-methyl-2-phenyl-1H-indol-3-yl)-N-[(3S,4R)-4-hydroxy-2-oxo-pyrrolidin-3-yl]propanamide]	> 6.60
O=C(CCc1c(-c2ccc(F)cc2)[nH]c2c(F)cc(C(F)(F)F)cc12)N[C@@H]1C(=O)NC[C@H]1O [Compound 101, 3-[7-fluoro-2-(4-fluorophenyl)-5-(trifluoromethyl)-1H-indol-3-yl]-N-[(3S,4R)-4-hydroxy-2-oxo-pyrrolidin-3-yl]propanamide]	> 6.60
O=C(CCc1c(-c2ccc(OC(F)F)cc2)[nH]c2c(F)cc(F)cc12)N[C@@H]1C(=O)NC[C@H]1O [Compound 102]	> 6.60
O=C(CCc1c(-c2cccc(F)c2)[nH]c2c(F)cc(F)cc12)N[C@@H]1C(=O)NC[C@H]1O [Compound 103]	> 6.60
O=C(CCc1c(-c2cc(F)cc(F)c2)[nH]c2c(F)cc(F)cc12)N[C@@H]1C(=O)NC[C@H]1O [Compound 104]	> 6.60
O=C(CCc1c(-c2ccc(F)c(F)c2)[nH]c2c(F)cc(F)cc12)N[C@@H]1C(=O)NC[C@H]1O [Compound 105]	> 6.60
O=C(CCc1c(-c2ccc(F)cc2)[nH]c2c(OC(F)F)cc(F)cc12)N[C@@H]1C(=O)NC[C@H]1O [Compound 107]	6.00 to 6.60
O=C(CCc1c(-c2ccc(F)cc2)[nH]c2ccc(C(F)(F)F)cc12)N[C@@H]1C(=O)NC[C@H]1O [Compound 108, 3-[2-(4-fluorophenyl)-5-(trifluoromethyl)-1H-indol-3-yl]-N-[(3S,4R)-4-hydroxy-2-oxo-pyrrolidin-3-yl]propanamide]	> 6.60
O=C(CCc1c(-c2ccccc2)[nH]c2cc(F)ccc12)N[C@@H]1C(=O)NC[C@H]1O [Compound 109, 3-(6-fluoro-2-phenyl-1H-indol-3-yl)-N-[(3S,4R)-4-hydroxy-2-oxo-pyrrolidin-3-yl]propanamide]	> 6.60
O=C(CCc1c(-c2ccccc2)[nH]c2c(C(F)(F)F)cccc12)N[C@@H]1C(=O)NC[C@H]1O [Compound 112, N-[(3S,4R)-4-hydroxy-2-oxo-pyrrolidin-3-yl]-3-[2-phenyl-7-(trifluoromethyl)-1H-indol-3-yl]propanamide]	< 6.00
O=C(CCc1c(-c2ccccc2)[nH]c2cccc(F)c12)N[C@@H]1C(=O)NC[C@H]1O [Compound 114, 3-(4-fluoro-2-phenyl-1H-indol-3-yl)-N-[(3S,4R)-4-hydroxy-2-oxo-pyrrolidin-3-yl]propanamide]	6.00 to 6.60
N#Cc1ccc(-c2[nH]c3ccccc3c2CCC(=O)N[C@@H]2C(=O)NC[C@H]2O)cc1 [Compound 116, 3-[2-(4-cyanophenyl)-1H-indol-3-yl]-N-[(3S,4R)-4-hydroxy-2-oxo-pyrrolidin-3-yl]propanamide]	> 6.60
O=C(CCc1c(-c2ccc(OC(F)(F)F)cc2)[nH]c2ccccc12)N[C@@H]1C(=O)NC[C@H]1O [Compound 118]	> 6.60
O=C(CCc1c(-c2ccc(Cl)c(F)c2)[nH]c2ccccc12)N[C@@H]1C(=O)NC[C@H]1O [Compound 120]	> 6.60
COc1ccc(-c2[nH]c3ccccc3c2CCC(=O)N[C@@H]2C(=O)NC[C@H]2O)cc1 [Compound 121]	> 6.60
Cc1ccc(-c2[nH]c3ccccc3c2CCC(=O)N[C@@H]2C(=O)NC[C@H]2O)c(F)c1 [Compound 122]	> 6.60
O=C(CCc1c(-c2ccc(C(F)(F)F)cc2)[nH]c2ccccc12)N[C@@H]1C(=O)NC[C@H]1O [Compound 123]	> 6.60
Cc1ccc(-c2[nH]c3ccccc3c2CCC(=O)N[C@@H]2C(=O)NC[C@H]2O)cc1 [Compound 124]	> 6.60
Cc1cc(-c2[nH]c3ccccc3c2CCC(=O)N[C@@H]2C(=O)NC[C@H]2O)ccc1F [Compound 125]	> 6.60
Cc1ccc(-c2[nH]c3ccccc3c2CCC(=O)N[C@@H]2C(=O)NC[C@H]2O)cc1F [Compound 126]	> 6.60
O=C(CCc1c(-c2cc(F)cc(F)c2)[nH]c2ccccc12)N[C@@H]1C(=O)NC[C@H]1O [Compound 127, 3-[2-(3,5-difluorophenyl)-1H-indol-3-yl]-N-[(3S,4R)-4-hydroxy-2-oxo-pyrrolidin-3-yl]propanamide]	6.00 to 6.60
O=C(CCc1c(-c2ccc(Cl)cc2)[nH]c2ccccc12)N[C@@H]1C(=O)NC[C@H]1O [Compound 128, 3-[2-(4-chlorophenyl)-1H-indol-3-yl]-N-[(3S,4R)-4-hydroxy-2-oxo-pyrrolidin-3-yl]propanamide]	> 6.60
O=C(CCc1c(-c2ccc(F)c(F)c2)[nH]c2ccccc12)N[C@@H]1C(=O)NC[C@H]1O [Compound 129, 3-[2-(3,4-difluorophenyl)-1H-indol-3-yl]-N-[(3S,4R)-4-hydroxy-2-oxo-pyrrolidin-3-yl]propanamide]	> 6.60
O=C(CCc1c(-c2ccc(C(F)F)cc2)[nH]c2ccccc12)N[C@@H]1C(=O)NC[C@H]1O [Compound 131, 3-[2-[4-(difluoromethyl)phenyl]-1H-indol-3-yl]-N-[(3S,4R)-4-hydroxy-2-oxo-pyrrolidin-3-yl]propanamide]	> 6.60
